Experimental data as given in US10266544B2, “Aryl substituted aminomethyl spectinomycin analogs as antibacterial agents” (ST. JUDE CHILDREN'S RESEARCH HOSPITAL, INC., priority 2013, dated 2019).
Where a name gives a salt, the structure may show the parent alone. Read-outs that look alike come from different tables or passages of the source.

Assays:
Assay type in all cases: cell-based
[1] = test system: E. coli K12 ΔtolC; test: microbe, parasite or virus in culture; conditions: Escherichia coli, read-out: MIC E.c. Δtolc
[2] = test system: Haemophilus influenza (ATCC 49247); test: microbe, parasite or virus in culture; conditions: ATCC49247; Haemophilus influenza; 4 μg per disc; range of at least two experiments; read-out: Zone of inhibition H.i.
[3] = test system: Bacillus subtilis (ATCC 23857); test: MIC determination, microbroth dilution; conditions: ATCC23857; Bacillus subtilis (ATCC 23857); read-out: MIC B.s.
[4] = test system: Pseudomonas aeruginosa (PA01); test: MIC determination, microbroth dilution
[5] = test system: Listeria monocytogenes; test: MIC determination (Table 6)
[6] = test system: Moraxella catarrhalis; test: MIC determination (Table 6)
[7] = test system: Legionella pneumophila (ATCC 33153); test: microbe, parasite or virus in culture; conditions: ATCC33153, 72 h, read-out: Zone of inhibition L.p.
[8] = test system: Escherichia coli (ATCC 700926); test: MIC determination, microbroth dilution; conditions: ATCC700926; Escherichia coli (ATCC 700926); read-out: MIC E.c.
[9] = test system: Klebsiella pneumoniae (ATCC 33495); test: MIC determination, microbroth dilution; conditions: ATCC33495
[10] = test system: Streptococcus pneumoniae (R6); test: MIC determination, microbroth dilution; conditions: read-out: MIC S. pn.
[11] = test system: Yersinia pestis; test: microbe, parasite or virus in culture; conditions: read-out: MIC Y.p.
[12] = test system: MRSA, Staphylococcus aureus (NRS70); test: MIC determination, microbroth dilution; conditions: Staphylococcus aureus (NRS70); read-out: MIC MRSA
[13] = test system: Neisseria meningitides (ATCC 13077); test: Disc diffusion assay; conditions: ATCC13077, 4 μg per disc, read-out: Zone of inhibition N.m.
[14] = test system: Neisseria gonorrhoeae (ATCC 49226); test: Disc diffusion assay; conditions: ATCC49226, 4 μg per disc, read-out: Zone of inhibition N.g.
[15] = test system: Staphylococcus aureus (ATCC 29213); test: MIC determination, microbroth dilution; conditions: ATCC29213; Staphylococcus aureus (ATCC 29213); read-out: MIC S.a.
[16] = test system: Enterococcus faecalis (ATCC 33186); test: MIC determination, microbroth dilution
[17] = test system: Bacillus anthracis; test: microbe, parasite or virus in culture; conditions: read-out: MIC B.a.
[18] = test system: Burkholderia cepacia (ATCC 25416); test: MIC determination, microbroth dilution; conditions: Burkholderia cepacia
[19] = test system: Stenotrophomonas maltophilia (ATCC 13637); test: MIC determination, microbroth dilution
[20] = test system: acinetobacter baumannii (ATCC 19606); test: MIC determination, microbroth dilution; conditions: ATCC19606
[21] = test system: Bacillus anthracis, Sterne 34F2; test: microbe, parasite or virus in culture; conditions: STERNE34F2, read-out: MIC B.a.
[22] = test system: Proteus vulgaris (ATCC 33420); test: MIC determination, microbroth dilution; conditions: ATCC33420
[23] = test system: M. tuberculosis clinical isolates; test: microbe, parasite or virus in culture; conditions: Mycobacterium tuberculosis, H37RV, read-out: MIC H37Rv
[24] = test system: Streptococcus pyogenes (ATCC 700294); test: MIC determination, microbroth dilution
[25] = test system: Neisseria gonorrhoeae (ATCC 49226); test: Agar MIC determination (Alamar Blue); conditions: ATCC49226, agar MIC, read-out: MIC N.g.
[26] = test system: Proteus mirabilis (ATCC 25933); test: MIC determination, microbroth dilution; conditions: ATCC25933
[27] = ATCC25416, read-out: MIC B.c., Burkholderia cepacia (ATCC 25416)
[28] = ATCC25416, read-out: MIC B.c., Burkholderia cepacia, Table 6

SMILES	MIC [1]	zone of inhibition at 4 µg/disc [2]	MIC [3]	MIC [4]	MIC [5]	MIC [6]	zone of inhibition at 4 µg/disc [7]	MIC [8]	MIC [9]	MIC [11]	MIC [12]	zone of inhibition at 4 µg/disc [13]	zone of inhibition at 4 µg/disc [14]	MIC [15]	MIC [17]	MIC [18, 27]	MIC [18, 28]	MIC [20]	MIC [21]	MIC [22]	further results
CN[C@@H]1[C@H](O)[C@H](NC)[C@H]2O[C@]3(O)[C@H](O[C@@H]2[C@H]1O)O[C@H](C)C[C@@]3(O)CNCc1cccc(F)c1 [compound 15, 3′-(R)-3′-[(3-fluoro)benzylaminomethyl)]dihydrospectinomycin Trihydrochloride]	6.3 to 12.5 µg/mL	14 mm	3.1 to 6.3 µg/mL	≥ 200 µg/mL	6.3 µg/mL	1.6 µg/mL	41 mm	25 to 50 µg/mL	> 200 µg/mL	100 µg/mL	50 µg/mL	20 mm	18 mm	100 µg/mL	12.5 to 25 µg/mL	≥ 200 µg/mL	≥ 200 µg/mL	> 200 µg/mL	12.5 to 25 µg/mL	200 µg/mL	MIC ([10]; Streptococcus pneumoniae (R6)): 3.1 µg/mL; MIC ([16]; Enterococcus faecalis, ATCC33186, read-out: MIC E.f.): 12.5 to 25 µg/mL; MIC ([19]; ATCC13637, Stenotrophomonas maltophilia (ATCC 13637), read-out: MIC S.m.): 12.5 µg/mL; MIC [23]: 25 µg/mL; MIC ([24]; ATCC700294, Streptococcus pyogenes (ATCC 700294), read-out: MIC S. py.): 3.1 µg/mL; MIC [25]: 25 to 50 µg/mL; MIC [26]: > 200 µg/mL
CN[C@@H]1[C@H](O)[C@H](NC)[C@H]2O[C@]3(O)[C@H](O[C@@H]2[C@H]1O)O[C@H](C)C[C@@]3(O)CNCc1ccccn1 [compound 16, 3′-(R)-3′-(2-pyridinylmethylaminomethyl)dihydrospectinomycin Tetrahydrobromide]	50 µg/mL	7 mm	50 µg/mL	> 200 µg/mL	25 µg/mL	12.5 µg/mL	34 mm	100 to 200 µg/mL	200 µg/mL	100 µg/mL	> 200 µg/mL	13 mm	6 mm	100 to 200 µg/mL	50 µg/mL	> 200 µg/mL	> 200 µg/mL	> 200 µg/mL	50 µg/mL	> 200 µg/mL	MIC ([10]; Streptococcus pneumoniae): 12.5 µg/mL; MIC ([16]; ATCC33186, Enterococcus faecalis (ATCC 33186), read-out: MIC E.f.): 100 µg/mL; MIC ([19]; Stenotrophomonas maltophilia, ATCC13637, read-out: MIC S.m.): 12.5 to 25 µg/mL; MIC [23]: 12.5 µg/mL; MIC ([24]; Streptococcus pyogenes, ATCC700294, read-out: MIC S. py.): 12.5 to 25 µg/mL; MIC [25]: ≥ 200 µg/mL; MIC [26]: > 200 µg/mL
